Tests used:
[1] = target: T1, Alpha-2C adrenergic receptor (Homo sapiens, UniProt P18825); assay: DRUGMATRIX: Adrenergic Alpha-2C radioligand binding (ligand: [3H] MK-912); format: cell membranes, Sf9, Membrane; details: sf9
T1 sequence (P18825 whole entry): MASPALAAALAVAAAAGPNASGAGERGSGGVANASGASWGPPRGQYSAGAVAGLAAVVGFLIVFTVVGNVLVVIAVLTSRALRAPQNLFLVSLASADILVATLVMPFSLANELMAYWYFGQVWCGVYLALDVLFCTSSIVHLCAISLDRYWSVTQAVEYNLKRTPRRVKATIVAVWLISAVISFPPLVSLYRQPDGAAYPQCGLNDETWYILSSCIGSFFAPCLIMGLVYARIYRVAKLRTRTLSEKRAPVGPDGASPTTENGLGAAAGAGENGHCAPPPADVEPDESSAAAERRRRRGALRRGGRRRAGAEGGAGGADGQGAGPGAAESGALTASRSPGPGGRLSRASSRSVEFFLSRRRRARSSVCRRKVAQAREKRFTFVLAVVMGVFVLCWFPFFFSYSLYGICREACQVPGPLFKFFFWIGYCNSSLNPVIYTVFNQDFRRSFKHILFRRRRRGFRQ

[2] = target: T2, Type-2 angiotensin II receptor (Homo sapiens, UniProt P50052); format: cell-based; details: cho-k1; note: in other assays of this panel Not Active means under 50% inhibition at 10 µM
T2 sequence (P50052 whole entry): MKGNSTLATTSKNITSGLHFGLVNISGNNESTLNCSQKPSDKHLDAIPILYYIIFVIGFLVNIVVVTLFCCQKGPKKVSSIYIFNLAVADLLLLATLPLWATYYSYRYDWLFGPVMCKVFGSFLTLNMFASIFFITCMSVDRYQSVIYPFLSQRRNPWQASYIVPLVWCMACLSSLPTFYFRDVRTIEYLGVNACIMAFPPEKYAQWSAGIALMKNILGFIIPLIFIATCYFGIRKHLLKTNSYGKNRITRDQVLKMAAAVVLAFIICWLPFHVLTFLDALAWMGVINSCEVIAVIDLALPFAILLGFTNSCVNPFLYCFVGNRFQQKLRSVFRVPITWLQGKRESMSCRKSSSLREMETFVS

[3] = target: Sigma non-opioid intracellular receptor 1 (Homo sapiens, UniProt Q99720); assay: DRUGMATRIX: Sigma1 radioligand binding (ligand: [3H] Haloperidol); format: cell membranes, Jurkat, Membrane; details: jurkat; Not Active = under 50% inhibition at 10 µM
Chain of Sigma non-opioid intracellular receptor 1 (Q99720 whole entry): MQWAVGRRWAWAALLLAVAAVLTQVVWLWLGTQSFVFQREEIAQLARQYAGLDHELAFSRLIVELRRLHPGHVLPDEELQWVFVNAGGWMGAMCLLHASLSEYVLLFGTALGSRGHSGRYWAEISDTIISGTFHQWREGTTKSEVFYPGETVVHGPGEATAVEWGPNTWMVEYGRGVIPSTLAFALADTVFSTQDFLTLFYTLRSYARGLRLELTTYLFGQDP

[4] = DRUGMATRIX: Glutamate, AMPA radioligand binding (ligand: [3H] AMPA); format: cell membranes, Rattus norvegicus, Wistar, Cerebral cortex, Membrane; details: Not Active = under 50% inhibition at 10 µM
Histamine H2 receptor = Histamine H2 receptor (Homo sapiens, UniProt P25021); format: cell membranes, CHO-K1, Membrane; details: cho-k1; note: in other assays of this panel Not Active means under 50% inhibition at 10 µM
Chain of Histamine H2 receptor (P25021 whole entry): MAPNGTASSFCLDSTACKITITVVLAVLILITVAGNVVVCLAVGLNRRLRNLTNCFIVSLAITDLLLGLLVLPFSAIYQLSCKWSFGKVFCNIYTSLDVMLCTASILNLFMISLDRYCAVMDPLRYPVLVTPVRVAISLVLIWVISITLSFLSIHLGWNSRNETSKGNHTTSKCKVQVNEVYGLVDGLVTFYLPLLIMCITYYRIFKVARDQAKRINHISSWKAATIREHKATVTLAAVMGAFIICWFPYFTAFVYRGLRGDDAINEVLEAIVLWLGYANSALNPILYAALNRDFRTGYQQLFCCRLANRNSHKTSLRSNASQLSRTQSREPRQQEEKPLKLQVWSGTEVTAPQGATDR

Melanocortin receptor 5 = Melanocortin receptor 5 (Homo sapiens, UniProt P33032); format: cell membranes, HEK293, Membrane; details: hek293; note: in other assays of this panel Not Active means under 50% inhibition at 10 µM
Chain of Melanocortin receptor 5 (P33032 whole entry): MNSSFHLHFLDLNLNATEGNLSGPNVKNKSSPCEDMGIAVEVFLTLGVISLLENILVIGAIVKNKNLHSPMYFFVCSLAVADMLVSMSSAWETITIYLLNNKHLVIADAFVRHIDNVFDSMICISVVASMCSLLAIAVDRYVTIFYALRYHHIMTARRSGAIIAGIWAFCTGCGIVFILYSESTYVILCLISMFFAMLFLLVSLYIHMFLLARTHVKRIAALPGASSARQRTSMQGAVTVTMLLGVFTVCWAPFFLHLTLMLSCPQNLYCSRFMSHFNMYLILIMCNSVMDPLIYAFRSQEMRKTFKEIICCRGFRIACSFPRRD

N[C@@H]1[C@H]2CN(c3nc4c(cc3F)c(=O)c(C(=O)O)cn4-c3ccc(F)cc3F)C[C@@H]12 [TROVAFLOXACIN]
Not Active: IC50 [1] | IC50 [2] | IC50 [3] | IC50 [4] | Ki [4] | IC50 (Histamine H2 receptor) | IC50 (Melanocortin receptor 5)

N#CC(C#N)=Cc1ccc(O)c(O)c1 [TYRPHOSTIN 23]
Not Active: IC50 [1] | IC50 [2] | IC50 [3] | IC50 [4] | Ki [4] | IC50 (Histamine H2 receptor) | IC50 (Melanocortin receptor 5)

CC[C@]1(O)C[C@H]2CN(CCc3c([nH]c4ccccc34)[C@@](C(=O)OC)(c3cc4c(cc3OC)N(C=O)[C@H]3[C@@](O)(C(=O)OC)[C@H](OC(C)=O)[C@]5(CC)C=CCN6CC[C@]43[C@@H]65)C2)C1 [VINCRISTINE]
Not Active: IC50 [1] | IC50 [2] | IC50 [3] | IC50 [4] | Ki [4] | IC50 (Histamine H2 receptor) | IC50 (Melanocortin receptor 5)

CCCOc1ccccc1-c1nc2nn[nH]c2c(=O)[nH]1 [ZAPRINAST]
Not Active: IC50 [1] | IC50 [2] | IC50 [3] | IC50 [4] | Ki [4] | IC50 (Histamine H2 receptor) | IC50 (Melanocortin receptor 5)

SODIUM NITROPRUSSIDE
Not Active: IC50 [1] | Ki [1] | IC50 [2] | Ki [2] | IC50 [3] | Ki [3] | IC50 [4] | Ki [4] | IC50 (Histamine H2 receptor) | Ki (Histamine H2 receptor) | IC50 (Melanocortin receptor 5) | Ki (Melanocortin receptor 5)

— ChEMBL document CHEMBL1909046, “DrugMatrix in vitro pharmacology data”
